Measurements as given in ChEMBL document CHEMBL1144188, “Obovatol inhibits colorectal cancer growth by inhibiting tumor cell proliferation and inducing apoptosis” (Bioorg Med Chem, 2008).
Calls of active or inactive are those of the source. The rule behind the calls is not given here.

Experiments:
[1] = test system: SW-620; test: Antitumor activity in human SW620 cells xenografted nude mouse assessed as decrease in tumor volume at 2 mg/kg, ip after 21 days; format: functional; design: scale not given: the % may be the effect or the level left; conditions: route intraperitoneal
[2] = test system: SW-620; test: Antitumor activity in human SW620 cells xenografted nude mouse assessed as decrease in tumor weight at 2 mg/kg, ip after 21 days; format: functional; design: scale not given: the % may be the effect or the level left; conditions: route intraperitoneal
[3] = test system: Mus musculus; test: Toxicity in SW480 cells xenografted nude mouse assessed as change in body weight 2 mg/kg/day, ip after 21 days; format: organism-based; design: route intraperitoneal; conditions: in vivo, 504 h
[4] = test system: SW-620; test: Antitumor activity in human SW620 cells xenografted nude mouse assessed as decrease in tumor volume at 5 mg/kg/day, po after 5 days; format: functional
[5] = test system: SW-620; test: Antitumor activity in human SW620 cells xenografted nude mouse assessed as decrease in tumor volume at 5 mg/kg/day, po after 10 days; format: functional
[6] = test system: SW-620; test: Antitumor activity in human SW620 cells xenografted nude mouse assessed as decrease in tumor volume at 5 mg/kg/day, po after 16 days; format: functional
[7] = test system: SW-620; test: Antitumor activity in human SW620 cells xenografted nude mouse assessed as decrease in tumor volume at 5 mg/kg/day, po after 23 days; format: functional
[8] = test system: SW-620; test: Antitumor activity in human SW620 cells xenografted nude mouse assessed as decrease in tumor volume at 5 mg/kg/day, po after 27 days; format: functional
[9] = test system: Mus musculus; test: Toxicity in SW480 cells xenografted nude mouse assessed as change in body weight 5 mg/kg/day, ip after 21 days; format: organism-based; design: route intraperitoneal; conditions: in vivo, 504 h
[10] = test system: SW-620; test: Antitumor activity in human SW620 cells xenografted nude mouse assessed as decrease in tumor volume at 5 mg/kg/day, ip after 21 days; format: functional; conditions: route intraperitoneal
[11] = test system: SW-620; test: Antitumor activity in human SW620 cells xenografted nude mouse assessed as decrease in tumor weight at 5 mg/kg/day, ip after 21 days; format: functional; design: scale not given: the % may be the effect or the level left; conditions: route intraperitoneal
[12] = test system: SW-620; test: Antitumor activity against human SW620 cells at 30 uM after 24 hrs; format: functional; conditions: SW-620, 24 h
[13] = test system: SW-620; test: Antitumor activity against human SW620 cells at 30 uM after 48 hrs; format: functional; conditions: SW-620, 48 h
[14] = test system: SW-620; test: Antitumor activity against human SW620 cells at 30 uM after 72 hrs; format: functional; conditions: SW-620, 72 h
[15] = test system: SW-620; test: Antitumor activity against human SW620 cells at 30 uM after 96 hrs; format: functional; conditions: SW-620, 96 h
[16] = test system: SW-620; test: Antitumor activity against human SW620 cells at 50 uM after 24 hrs; format: functional; conditions: SW-620, 24 h
[17] = test system: SW-620; test: Antitumor activity against human SW620 cells at 50 uM after 48 hrs; format: functional; conditions: SW-620, 48 h
[18] = test system: SW-620; test: Antitumor activity against human SW620 cells at 50 uM after 72 hrs; format: functional; conditions: SW-620, 72 h
[19] = test system: SW-620; test: Antitumor activity against human SW620 cells at 50 uM after 96 hrs; format: functional; conditions: SW-620, 96 h
[20] = test system: SW-620; test: Antitumor activity against human SW620 cells at 100 uM after 24 hrs; format: functional; conditions: SW-620, 24 h
[21] = test system: SW-620; test: Antitumor activity against human SW620 cells at 100 uM after 48 hrs; format: functional; conditions: SW-620, 48 h
[22] = test system: SW-620; test: Antitumor activity against human SW620 cells at 100 uM after 72 hrs; format: functional; conditions: SW-620, 72 h
[23] = test system: SW-620; test: Antitumor activity against human SW620 cells at 100 uM after 96 hrs; format: functional; conditions: SW-620, 96 h
[24] = test system: HCT-116; test: Antiproliferative activity against human HCT 116 cells after 48 hrs by MTS assay; format: functional, cell-based
[25] = test system: HT-29; test: Antiproliferative activity against human HT-29 cells after 48 hrs by MTS assay; format: functional, cell-based
[26] = test system: DLD-1; test: Antiproliferative activity against human DLD1 cells after 48 hrs by MTS assay; format: functional, cell-based
[27] = test system: MCF7; test: Antiproliferative activity against human MCF7 cells after 48 hrs by MTS assay; format: functional, cell-based
[28] = test system: MDA-MB-231; test: Antiproliferative activity against human MDA-MB-231 cells after 48 hrs by MTS assay; format: functional, cell-based
[29] = test system: PC-3; test: Antiproliferative activity against human PC-3 cells after 48 hrs by MTS assay; format: functional, cell-based
[30] = test system: K562; test: Antiproliferative activity against human K-562 cells after 48 hrs by MTS assay; format: functional, cell-based
[31] = test system: SW-620; test: Cell cycle arrest in human SW620 cells assessed as accumulation at G1 phase at 50 uM after 72 hrs by FACS analysis; format: functional
[32] = test system: SW-620; test: Cell cycle arrest in human SW620 cells assessed as accumulation at S phase at 50 uM after 72 hrs by FACS analysis; format: functional
[33] = test system: SW-620; test: Cell cycle arrest in human SW620 cells assessed as accumulation at G2/M phase at 50 uM after 72 hrs by FACS analysis; format: functional
[34] = test system: SW-620; test: Induction of apoptosis in human SW620 cells assessed as chromosomal DNA fragmentation at […] after 48 hrs by FACS analysis; format: functional, cell-based
[35] = test system: MDA-MB-231; test: Induction of apoptosis in human MDA-MB-231 cells assessed as ROS production after 24 hrs; format: functional, cell-based
[36] = test system: MDA-MB-231; test: Induction of apoptosis in human MDA-MB-231 cells assessed as morphological changes in presence of N-acetyl-cysteine after 24 hrs; format: functional, cell-based
[37] = test system: SW-620; test: Cell cycle arrest in human SW620 cells assessed as accumulation at subG1 phase at 50 uM after 72 hrs by FACS analysis; format: functional
[38] = test system: SW-620; test: Effect on apoptosis-mediated morphological changes in human SW620 cells assessed as round cell formation; format: functional, cell-based
[39] = test system: SW-620; test: Induction of apoptosis in human SW620 cells assessed as apoptotic cell form at 50 uM relative to control; format: functional
[40] = test system: SW-620; test: Induction of apoptosis in human SW620 cells assessed as necrosis relative to control; format: functional
[41] = test system: DU-145; test: Antiproliferative activity against human DU145 cells after 48 hrs by MTS assay; format: functional, cell-based

COc1cccc2c1C(=O)c1c(O)c3c(c(O)c1C2=O)C[C@@](O)(C(=O)CO)C[C@@H]3O[C@H]1C[C@H](N)[C@H](O)[C@H](C)O1 [DOXORUBICIN]
Activity [1]: 58% | Activity [2]: 53.7% | Activity [3]: 13.1%

C=CCc1ccc(O)c(-c2ccc(O)c(CC=C)c2)c1 [HONOKIOL]
Activity [4]: 100 mm3 | Activity [5]: 150 mm3 | Activity [6]: 270 mm3 | Activity [7]: 600 mm3 | Activity [8]: 900 mm3 | Activity [9]: Non-toxic

C=CCc1ccc(Oc2cc(CC=C)cc(O)c2O)cc1 [OBOVATOR]
Activity [10]: 277 mm3 | Activity [11]: 44.6% | Activity [4]: 100 mm3 | Activity [5]: 130 mm3 | Activity [6]: 150 mm3 | Activity [7]: 400 mm3 | Activity [8]: 750 mm3 | inhibition at 30 µM [12]: 7% | inhibition at 30 µM [13]: 26% | inhibition at 30 µM [14]: 33% | inhibition at 30 µM [15]: 18% | inhibition at 50 µM [16]: 21% | inhibition at 50 µM [17]: 57% | inhibition at 50 µM [18]: 64% | inhibition at 50 µM [19]: 85% | inhibition at 100 µM [20]: 36% | inhibition at 100 µM [21]: 92% | inhibition at 100 µM [22]: 97% | inhibition at 100 µM [23]: 98% | Activity [9]: Non-toxic | Activity [24]: Active | Activity [25]: Active | Activity [26]: Active | Activity [27]: Active | Activity [28]: Active | Activity [29]: Active | Activity [30]: Active | Activity [31]: 53.6% | Activity [32]: 30.4% | Activity [33]: 16% | Activity [34]: Active | Activity [35]: inactive | Activity [36]: inactive | Activity [37]: 23.36% | Activity [38]: Active | Activity [39]: <50% | Activity [40]: <12% | Activity [41]: Active
